Publication PMC9231303, “Pharmacokinetic–Pharmacometabolomic Approach in Early-Phase Clinical Trials: A Way Forward for Targeted Therapy in Type 2 Diabetes” (Pharmaceutics, 2022)
Where “and” joins values, the source holds several entries; their conditions need not be identical. Equal values may be shown once. Entries after “also recorded” stand apart in the source; their conditions may differ. Read-outs that look alike come from different tables or passages of the source.

How the values were obtained:
[1] = cited from earlier work
[2] = Clinical safety, adverse event and glucose monitoring after single-dose metformin 1000 mg in healthy subjects; assay type: in vivo, human
Procedure: Three cohorts were planned to ensure sufficient clinical ward staff and space to monitor every subject on the dosing day. Subjects were housed in a controlled environment, and standardized meals were provided to each cohort. The blood samples were collected using an ethylenediaminetetraacetic acid (EDTA) tube and centrifuged at 10,000 rpm for 10 min at 4. The plasma samples together with the urine samples were kept in a -80 °C freezer in cryovials for further analysis. The subjects were monitored for adverse events until seven days post-dose. Pre-dose and peak-concentration plasma samples were used for untargeted pharmacometabolomic analysis to determine the treatment metabotypes.

clinical = conditions: human, in vivo
[3] = tested on: human metabolic pathways (KEGG); assay: Untargeted urine pharmacometabolomics (pre-dose U0 versus U1 0–4 h, U2 4–8 h, U3 8–12 h, n = 6), mummichog functional pathway analysis; assay type: in vivo; conditions: urine collections 0–12 h
[4] = tested on: human metabolic pathways (KEGG); assay: Untargeted plasma pharmacometabolomics dataset A (pre-dose versus T2.5, 3, 3.5 h, n = 6), mummichog functional pathway analysis; conditions: time course 0–12 h

In the case of `CN(C)C(=N)N=C(N)N` [metformin], the peak plasma concentration ([1]; diabetic patients, 1000 mg twice daily chronically) is given as “approximately 40 µM”, the “plasma concentration reached within three hours” value ([1]; oral 1000 mg, non-diabetic subjects) is given as 25 µM and the Glucose ([2]; 4 hours post-dose (before lunch), mean of 17 subjects) is given as 4.7 mmol/L. It also gave a Glucose ([2]; 4 hours post-dose, subject S01) of 5.0 mmol/L, a Glucose ([2]; 4 hours post-dose, subject S02) of 4.7 mmol/L and a Glucose ([2]; 4 hours post-dose, subject S04) of 4.8 mmol/L. For the same compound, the Glucose ([2]; 4 hours post-dose, subject S05) was 5.2 mmol/L, the Glucose ([2]; 4 hours post-dose, subject S06) was 4.6 mmol/L and the Glucose ([2]; 4 hours post-dose, subject S07) was 4.7 mmol/L. The Glucose ([2]; 4 hours post-dose, subject S08) was 4.3 mmol/L, the Glucose ([2]; 4 hours post-dose, subject S09) was 4.4 mmol/L and the Glucose ([2]; 4 hours post-dose, subject S10) was 4.9 mmol/L. It also gave a Glucose ([2]; 4 hours post-dose, subject S11) of 4.7 mmol/L, a Glucose ([2]; 4 hours post-dose, subject S12) of 5.2 mmol/L and a Glucose ([2]; 4 hours post-dose, subject S13) of 4.4 mmol/L. For the same compound, the Glucose ([2]; 4 hours post-dose, subject S14) was 4.7 mmol/L, the Glucose ([2]; 4 hours post-dose, subject S15) was 4.4 mmol/L and the Glucose ([2]; 4 hours post-dose, subject S16) was 4.9 mmol/L. The Glucose ([2]; 4 hours post-dose, subject S17) was 4.6 mmol/L, the Glucose ([2]; 4 hours post-dose, subject S18) was 3.9 mmol/L and the clinical laboratory characteristics ([2]; screening versus follow-up, clinician judgement) was “within normal range and considered no significant changes”. The adverse drug reaction ([2]; single dose 1000 mg, 17 healthy subjects, monitored until seven days post-dose) was “One subject experienced abdominal pain after the dosing; also recorded: stomach cramps; also recorded: one side effect was observed”, the Tmax (male, human, in vivo) was 3 h and the T_max (male, human, in vivo, po) was 2.5 (2.5–3.0) h. For the same compound, the CL (male, human, in vivo, po, 1000 mg) was 1884 (32.3) mL/min, the Tmax (subject S6) was 2 h and the Tmax (subject S8) was 3.5 h and 2 h. For the same compound, the Cmax (subject S10) was 1391.3 ng/mL, the Tmax (subject S15) was 4 h and the Tmax (subject S16) was 2 h. It also gave a Cmax (subject S17) of 1381.7 ng/mL, a Tmax (subject S17) of 4 h and a Cmax (clinical; 1000 mg, subject S4) of 1430 ng/mL. It also gave a Cmax (clinical; 1000 mg, subject S9) of 1170 ng/mL, a Tmax (clinical; male) of 2.65 h and an AUC(0-t) (clinical; male, 1000 mg) of 10900 ng·h/mL. It also gave a k el (clinical; male, Ke) of 3.97e-05 s⁻¹, an AUC (clinical; male, po, 1000 mg) of 9510 ng·h/mL and an AUC(0-t) (clinical; male, po, 1000 mg, AUC_0–24) of 8960 ng·h/mL. For the same compound, the “metformin in urine (untargeted LCMS, positive mode)” value [3] was “achieved high concentration in the first 8 h and a slight reduction during 8–12 h” and the “metformin intensity in plasma (untargeted LCMS, positive mode)” value [4] was “a reducing trend happened at 8 h and a return to zero at 12 h”.
